Laboratory results published in patent publication US20080107679A1, “Skin care compositions including hexapeptide complexes and methods of their manufacture” (priority 2003, published 2008).

Tests used:
skin = test: Clinical evaluations of the hexapeptide complex: moisture content; type: in vivo; details: after 15 minutes of use
From the text: (§1) The combination of ingredients of the skin care compositions of the present invention are believed to provide synergistic benefits which are otherwise not available with any one of the components used by itself. Clinical evaluations based on the use of the hexapeptide complex itself evidenced a reduction in fine lines and wrinkles, including laugh lines, frown lines, and smile lines, by approximately 13% after 2 weeks and approximately 33% in 4 weeks of use. It was further observed that 100% of participants experienced a reduction in under-eye fine lines and wrinkles on the average of approximately 16% after 4 weeks and approximately 52% after 8 weeks of use. Additionally, an increase in moisture content by 37% after 15 minutes of use was observed.

fine lines and wrinkles = test: Clinical evaluations of the hexapeptide complex: fine lines and wrinkles; type: in vivo
From the text: as §1

Substance: acetyl hexapeptide-3 [hexapeptide complex]
- increase in moisture content (skin): 37%
- reduction in fine lines and wrinkles, including laugh lines, frown lines, and smile lines (fine lines and wrinkles; after 2 weeks): approximately 13%
- average reduction in under-eye fine lines and wrinkles (fine lines and wrinkles; after 4 weeks): approximately 16%
- average reduction in under-eye fine lines and wrinkles (fine lines and wrinkles; after 8 weeks of use): approximately 52%
- reduction in fine lines and wrinkles, including laugh lines, frown lines, and smile lines (fine lines and wrinkles; in 4 weeks of use): approximately 33%
- participants who experienced a reduction in under-eye fine lines and wrinkles (fine lines and wrinkles; in vivo): 100%
